Measurements published in patent US20050059726A1, “Pyrrolidine-2-ones as factor xa inhibitors” (priority 2001, published 2005).

Molecular target: human Factor Xa (Homo sapiens, UniProt P00742)
Assay: In vitro assay for inhibition of Factor Xa (2), fluorogenic assay
Type: biochemical
Settings: substrate Rhodamine 110, bis-(CBZ-glycylglycyl-L-arginine amide 10 μM), Ki calculated from IC50
Method: In Vitro Assay for Inhibition of Factor Xa (2)
All other compounds of the present invention were tested for their Factor Xa inhibitory activity as determined in vitro by their ability to inhibit human Factor Xa in a fluorogenic assay, using Rhodamine 110, bis-(CBZ-glycylglycyl-L-arginine amide as the fluorogenic substrate. Compounds were diluted from a 10 mM stock solution in dimethylsulfoxide at appropriate concentrations. Assay was performed at room temperature using buffer consisting of: 50 mM Tris-HCl, 150 mM NaCl, 5 mM CaCl2, pH 7.4. containing human Factor Xa (final conc. Of 0.0003U.ml−1). Compound and enzyme were preincubated for 15 min prior to addition of the substrate (final conc. of 10 μM). The reaction was stopped after 3 hrs with the addition of H-D-PHE-PRO-ARG-Chloromethylketone. […] To obtain IC50 values the data were analysed using ActivityBase® and XLfit®.
Calculation of Ki values:
Ki=IC50/(1+[Substrate]/Km)
The Ki value for the above assay can be obtained by dividing the IC50 value by 1.6.

Sequence of human Factor Xa (P00742 235-488 limits assumed): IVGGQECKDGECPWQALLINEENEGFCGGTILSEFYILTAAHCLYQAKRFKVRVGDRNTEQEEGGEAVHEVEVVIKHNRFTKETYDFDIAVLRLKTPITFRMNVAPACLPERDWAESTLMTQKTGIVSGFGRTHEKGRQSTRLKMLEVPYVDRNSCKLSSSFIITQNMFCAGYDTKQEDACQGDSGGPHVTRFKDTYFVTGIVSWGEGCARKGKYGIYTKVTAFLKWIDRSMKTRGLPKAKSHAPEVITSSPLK
Sequence of human Factor Xa (P00742 41-179 partner limits assumed): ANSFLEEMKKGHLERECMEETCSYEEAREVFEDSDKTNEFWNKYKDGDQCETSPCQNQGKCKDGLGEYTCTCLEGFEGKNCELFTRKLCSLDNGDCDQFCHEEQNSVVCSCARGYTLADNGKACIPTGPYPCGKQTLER

Ki | Compound
< 0.2 µM | COc1ccc(-c2ccc(N3CC[C@H](NS(=O)(=O)c4ccc5cc(Cl)ccc5c4)C3=O)c(F)c2)cn1 [Example 58, 6-Chloro-N-{(3S)-1-[2-fluoro-4-(6-methoxypyridin-3-yl)phenyl]-2-oxopyrrolidin-3-yl}naphthalene-2-sulfonamide]
< 0.2 µM | O=C1[C@@H](NS(=O)(=O)c2ccc3cc(Cl)ccc3c2)CCN1c1ccc(-c2cncc(Br)c2)cc1F [Example 61, N-{(3S)-1-[4-(5-Bromopyridin-3-yl)-2-fluorophenyl]-2-oxopyrrolidin-3-yl}-6-chloronaphthalene-2-sulfonamide]
< 0.2 µM | O=C1[C@@H](NS(=O)(=O)c2ccc3cc(Cl)ccc3c2)CCN1c1ccc(-c2ccoc2)cc1F [Example 65, 6-Chloro-N-{(3S)-1-[2-fluoro-4-(3-furyl)phenyl]-2-oxopyrrolidin-3-}naphthalene-2-sulfonamide]
< 0.2 µM | O=C1[C@@H](NS(=O)(=O)c2ccc3cc(Cl)ccc3c2)CCN1c1ccc(-c2ccsc2)cc1F [Example 67, 6-Chloro-N-[(3S)-1-(2-fluoro-4-thien-3-ylphenyl)-2-oxopyrrolidin-3-yl]naphthalene-2-sulfonamide]
< 0.2 µM | Cc1ccc(-c2ccc(N3CC[C@H](NS(=O)(=O)c4ccc5cc(Cl)ccc5c4)C3=O)c(F)c2)s1 [Example 68, 6-Chloro-N-{(3S)-1-[2-fluoro-4-(5-methylthien-2-yl)phenyl]-2-oxopyrrolidin-3-yl}naphthalene-2-sulfonamide]
< 0.2 µM | Cc1cscc1-c1ccc(N2CC[C@H](NS(=O)(=O)c3ccc4cc(Cl)ccc4c3)C2=O)c(F)c1 [Example 69, 6-Chloro-N-{(3S)-1-[2-fluoro-4-(4-methylthien-3-yl)phenyl]-2-oxopyrrolidin-3-yl}naphthalene-2-sulfonamide]
< 0.2 µM | O=C1[C@@H](NS(=O)(=O)c2ccc3cc(Cl)ccc3c2)CCN1c1ccc(-c2ccc(Cl)s2)cc1F [Example 71, 6-Chloro-N-{(3S)-1-[4-(5-chlorothien-2-yl)-2-fluorophenyl]-2-oxopyrrolidin-3-yl}naphthalene-2-sulfonamide]
< 0.02 µM | Cc1noc(C)c1-c1ccc(N2CC[C@H](NS(=O)(=O)c3ccc4cc(Cl)ccc4c3)C2=O)c(F)c1 [Example 72, 6-Chloro-N-{(3S)-1-[4-(3,5-dimethylisoxazol-4-yl)-2-fluorophenyl]-2-oxopyrrolidin-3-yl}naphthalene-2-sulfonamide]

The next lines start with the compound.

Compound | Ki
CC(C)(C)OC(=O)CN([C@H]1CCN(c2ccc(-c3ccccc3S(C)(=O)=O)cc2F)C1=O)S(=O)(=O)/C=C/c1ccc(Cl)s1 [Example 47, tert-Butyl ({[(E)-2-(5-chlorothien-2-yl)ethenyl]sulfonyl}{(3S)-1-[3-fluoro-2′-(methylsulfonyl)-1,1′-biphenyl-4-yl]-2-oxopyrrolidin-3-yl}amino)acetate] | < 0.01 µM
CS(=O)(=O)c1ccccc1-c1ccc(N2CC[C@H](N(CC(=O)O)S(=O)(=O)/C=C/c3ccc(Cl)s3)C2=O)nc1 [Example 48, {[(E)-2-(5-Chlorothien-2-yl)(ethenyl]sulfonyl}((3S)-1-{5-[2-(methylsulfonyl)phenyl]pyridin-2-yl}-2-oxopyrrolidin-3-yl)amino]acetic Acid] | < 0.01 µM
CS(=O)(=O)c1ccccc1-c1ccc(N2CC[C@H](N(CC(=O)O)S(=O)(=O)/C=C/c3ccc(Cl)s3)C2=O)c(F)c1 [Example 49] | < 0.01 µM
NC(=O)c1cccc(-c2ccc(N3CC[C@H](NS(=O)(=O)c4ccc5cc(Cl)ccc5c4)C3=O)c(F)c2)c1 [Example 50, 4′-[(S)-3-(6-Chloro-naphthalene-2-sulphonylamino)-2-oxo-pyrrolidin-1-yl]-3′-fluoro-biphenyl-3-carboxylic Acid Amide] | < 0.01 µM
CSc1ccccc1-c1cnc(N2CC[C@H](NS(=O)(=O)c3ccc4cc(Cl)ccc4c3)C2=O)s1 [Example 51, 6-Chloro-naphthalene-2-sulphonic Acid [(S)-1-[5-(2-methylsulphanylphenyl)-thiazol-2-yl]-2-oxo:pyrrolidin-3-yl]amide] | < 0.2 µM
CS(=O)(=O)c1ccccc1-c1ccc(N2CC[C@H](NS(=O)(=O)c3cccc(CN)c3)C2=O)c(F)c1 [Example 53, 3-(Aminomethyl)-N-{(3S)-1-[3-fluoro-2′-(methylsulfonyl)-1,1′-biphenyl-4-yl]-2-oxopyrrolidin-3-yl}benzenesulfonamide] | < 0.02 µM
O=C1[C@@H](NS(=O)(=O)c2ccc3cc(Cl)ccc3c2)CCN1c1ccc(-c2ccncc2)cc1F [Example 55, 6-Chloro-N-[(3S)-1-(2-fluoro-4-pyridin-4-ylphenyl)-2-oxopyrrolidin-3-yl]naphthalene-2-sulfonamide] | < 0.01 µM
COc1ncc(-c2ccc(N3CC[C@H](NS(=O)(=O)c4ccc5cc(Cl)ccc5c4)C3=O)c(F)c2)c(OC)n1 [Example 56, 6-Chloro-N-{(3S)-1-[4-(2,4-dimethoxypyrimidin-5-yl)-2-fluorophenyl]oxopyrrolidin-3-yl}naphthalene-2-sulfonamide] | < 0.2 µM
O=C1[C@@H](NS(=O)(=O)c2ccc3cc(Cl)ccc3c2)CCN1c1ccc(-c2cccnc2)cc1F [Example 57, 6-Chloro-N-[(3S)-1-(2-fluoro-4-pyridin-3ylphenyl)-2-oxopyrrolidin-3-yl]naphthalene-2-sulfonamide] | < 0.01 µM
CSc1ccc(-c2ccc(N3CC[C@H](NS(=O)(=O)c4ccc5cc(Cl)ccc5c4)C3=O)c(F)c2)cn1 [Example 60, 6-Chloro-N-((3S)-1-{2-fluoro-4-[6-(methylthio)pyridin-3-yl]phenyl}-2-oxopyrrolidin-3-yl)naphthalene-2-sulfonamide] | < 0.2 µM
COc1ccncc1-c1ccc(N2CC[C@H](NS(=O)(=O)c3ccc4cc(Cl)ccc4c3)C2=O)c(F)c1 [Example 62, 6-Chloro-N-{(3S)-1-[2-fluoro-4-(4-methoxypyridin-3-yl)phenyl]-2-oxopyrrolidin-3-yl}naphthalene-2-sulfonamide] | < 0.01 µM
O=C1[C@@H](NS(=O)(=O)c2ccc3cc(Cl)ccc3c2)CCN1c1ccc(-c2cncnc2)cc1F [Example 63, 6-Chloro-N-[(3S)-1-(2-fluoro-4-pyrimidin-5-ylphenyl)-2-oxopyrrolidin-3-yl]naphthalene-2-sulfonamide] | < 0.2 µM
NCc1cccc(-c2ccc(N3CC[C@H](NS(=O)(=O)c4ccc5cc(Cl)ccc5c4)C3=O)c(F)c2)c1 [Example 64] | < 0.01 µM
O=Cc1ccsc1-c1ccc(N2CC[C@H](NS(=O)(=O)c3ccc4cc(Cl)ccc4c3)C2=O)c(F)c1 [Example 70, 6-Chloro-N-{(3S)-1-[2-fluoro-4-(3-formylthien-2-yl)phenyl]-2-oxopyrrolidin-3-yl}naphthalene-2-sulfonamide] | < 0.02 µM
O=C1[C@@H](NS(=O)(=O)c2ccc3cc(Cl)ccc3c2)CCN1c1ccc(-c2ccccc2)cc1F [Example 74, 6-Chloro-N-[(3S)-1-(3-fluoro-1,1′-biphenyl-4-yl)-2-oxopyrrolidin-3-yl]naphthalene-2-sulfonamide] | < 0.2 µM
O=C1[C@@H](NS(=O)(=O)c2ccc3cc(Cl)ccc3c2)CCN1c1ccc(-c2cc[n+]([O-])cc2)cc1F [Example 76, 6-Chloro-N-{(3S)-1-[2-fluoro-4-(1-oxidopyridin-4-yl)phenyl]-2-oxopyrrolidin-3-yl}naphthalene-2-sulfonamide] | < 0.02 µM
